According to patent US3932374A, “Bleomycinic acid and process for preparing thereof” (Zaidan Hojin Biseibutsu Kagaku Kenkyu Kai, priority 1971, dated 1976):
Like-named read-outs stand apart in the source and are kept apart here.

Experiments:
Mycobacterium 607 [1] = settings: cup test; standard value; cited from earlier work
HeLa (S3 bb cell line) = settings: third day
Text: wherein the inhibitory effect = [formula] Co: relative number of cell on the first day t3 : relative number of cell on the third day after the addition of a bleomycin (3 mcg/ml in final)
C3 : relative number of cell in negative control on the third day

Mycobacterium 607 [2] = test: cup test, antimicrobial activity to Mycobacterium 607; format: cell-based
Text: The endpoint of the hydrolysis reaction can be determined by a reaction in antimicrobial activity of the bleomycin substrate as measured by conventional cup tests using Mycobacterium 607, or by a change in the Rf value during thin layer chromatography.

ICR-JCL male mice = settings: 10 mice, 10 mg./kg. i.v., 10 days
Text: The mice were bred for 5 weeks after the final administration and were then dissected. The right and left lungs were observed by microscopic examination.

solubility in solvents = format: physicochemical

Compound: Cc1c(N)nc([C@H](CC(N)=O)NC[C@H](N)C(N)=O)nc1C(=O)N[C@H](C(=O)N[C@H](C)[C@@H](O)[C@H](C)C(=O)N[C@H](C(=O)NCCc1nc(-c2nc(C(=O)NCCC[S+](C)C)cs2)cs1)[C@@H](C)O)[C@@H](O[C@@H]1O[C@@H](CO)[C@@H](O)[C@H](O)[C@@H]1O[C@H]1O[C@H](CO)[C@@H](O)[C@H](OC(N)=O)[C@@H]1O)c1c[nH]cn1.[Br-] [bleomycin A2, 3-dimethylsulfopropylamino-bleomycin]
- antimicrobial activity, standard (Mycobacterium 607 [1]): 1000 μ/mg

Compound: Cc1c(N)nc([C@H](CC(N)=O)NC[C@H](N)C(N)=O)nc1C(=O)N[C@H](C(=O)N[C@H](C)[C@@H](O)[C@H](C)C(=O)N[C@H](C(=O)NCCc1nc(-c2nc(C(=O)NCCCCN=C(N)N)cs2)cs1)[C@@H](C)O)[C@@H](O[C@@H]1O[C@@H](CO)[C@@H](O)[C@H](O)[C@@H]1O[C@H]1O[C@H](CO)[C@@H](O)[C@H](OC(N)=O)[C@@H]1O)c1cnc[nH]1 [bleomycin B2, 4-guanidinobutylamino-bleomycin]
- Inhibitory effect (cell culture of Yoshida; 0.625 mcg/ml): 8.6
- Inhibitory effect (cell culture of Yoshida; 1.25 mcg/ml): 34.0
- Inhibitory effect (cell culture of Yoshida; 2.5 mcg/ml): 56.0
- Inhibitory effect (cell culture of Yoshida; 5 mcg/ml): 74.9
- Inhibitory effect (HeLa (S3 bb cell line); 1.5 mcg/ml.): 33
- Inhibitory effect (HeLa (S3 bb cell line); 3 mcg/ml.): 64
- antimicrobial activity to Mycobacterium 607 (Mycobacterium 607 [2]): 3094 μ/mg
- antimicrobial activity to Mycobacterium 607 (Mycobacterium 607 [2]; listed as bleomycin): 3015 μ/mg
- Total, mice with degree of fibrosis ++ (ICR-JCL male mice; Lung L): 1
- Total, mice with degree of fibrosis - (ICR-JCL male mice; Lung L): 5
- Total, mice with degree of fibrosis ± (ICR-JCL male mice; Lung L): 1
- Total, mice with degree of fibrosis ± (third Total column) (ICR-JCL male mice; Lung L): 3
- Total, mice with degree of fibrosis ++ (ICR-JCL male mice; Lung R): 0
- Total, mice with degree of fibrosis - (ICR-JCL male mice; Lung R): 4
- Total, mice with degree of fibrosis ± (ICR-JCL male mice; Lung R): 3
- Total, mice with degree of fibrosis ± (third Total column) (ICR-JCL male mice; Lung R): 3

Compound: Cc1c(N)nc(C(CC(N)=O)NCC(N)C(N)=O)nc1C(=O)NC(C(=O)NC(C)C(O)C(C)C(=O)NC(C(=O)NCCc1nc(-c2nc(C(=O)O)cs2)cs1)C(C)O)C(OC1OC(CO)C(O)C(O)C1OC1OC(CO)C(O)C(OC(N)=O)C1O)c1cnc[nH]1 (centres unmarked) [bleomycinic acid]
- antimicrobial activity to Mycobacterium 607 (Mycobacterium 607 [2]): 159 μ/mg

Compound: benzylamino-bleomycin
- Inhibitory effect (cell culture of Yoshida; 0.625 mcg/ml): 11.1
- Inhibitory effect (cell culture of Yoshida; 1.25 mcg/ml): 28.2
- Inhibitory effect (cell culture of Yoshida; 2.5 mcg/ml): 55.4
- Inhibitory effect (cell culture of Yoshida; 5 mcg/ml): 83.5
- Inhibitory effect (HeLa (S3 bb cell line); 1.5 mcg/ml.): 38
- Inhibitory effect (HeLa (S3 bb cell line); 3 mcg/ml.): 73
- Inhibitory effect (HeLa (S3 bb cell line); 6 mcg/ml.): 92
- antimicrobial activity to Mycobacterium 607 (Mycobacterium 607 [2]): 3250 μ/mg

Compound: hydrochloride of bleomycinic acid
- solubility in ethanol, ethyl acetate, acetone and ether (solubility in solvents; ethanol, ethyl acetate, acetone, ether): insoluble
- solubility in methanol, acetic acid, dimethylsulfoxide (solubility in solvents; methanol, acetic acid, dimethylsulfoxide): sparingly soluble
- solubility in water (solubility in solvents; water): soluble
